The target of the assay is mTOR kinase (Homo sapiens, UniProt P42345). Description: cell-free ELISA kinase assay. In kind it is biochemical. For orientation: ELISA stands for enzyme-linked immunosorbent assay.

Drawing on paper PMC5598135 (Toxicology Reports, 2014), this text covers IC50 for one molecule.

The term IC50 denotes the concentration needed to halve the response being measured. High values mean weaker potency, low ones greater potency.

Each structure is given as a SMILES string.

With `O=C1NC(c2cccc3ncccc23)Nc2ccccc21` (stereo not shown) [DQQ, 2,3-dihydro-2-(quinoline-5-yl) quinazolin-4(1H)-one], the 50% inhibitory concentration (IC50) came out at 6 nM.
